Like-named read-outs stand apart in the source and are kept apart here.
How the values were obtained:
Format in all cases: biochemical
[1] = target: T1, JAK3 (catalytic domain, His-tag) (Homo sapiens, UniProt P52333); test: JAK kinase assay (HTRF, phosphorylation of TK substrate-biotin), JAK3; conditions: ATP at Km (2 μM)
T1 construct: All four purified enzymes contain only the catalytic domain; His (N); purchased Carna Biosciences, Inc; host or cells: baculovirus expression system
Procedure, shortened: (§1)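 EC50 values come from HTRF signal of phospho-peptide detected by STK Ab Cryptate and Streptavidin-XL665 after overnight incubation. Reactions ran 20-30 min at RT in Hepes pH 7.0, 0.01% BSA, 1 mM DTT, with ATP at Km: 7, 4, 2 and 13 μM for JAK1, JAK2, JAK3, TYK2.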

[2] = target: T2, TYK2 (aa 871-1187, catalytic domain, GST-tag) (Homo sapiens, UniProt P29597); test: JAK kinase assay (HTRF, phosphorylation of TK substrate-biotin), TYK2; conditions: ATP at Km (13 μM)
T2 construct: JAK1 (aa 850-1154) and TYK2 (aa 871-1187) are expressed with an N-terminally fused GST-tag; GST (N); purchased Carna Biosciences, Inc; host or cells: baculovirus expression system
T2 sequence (P29597 871-1187): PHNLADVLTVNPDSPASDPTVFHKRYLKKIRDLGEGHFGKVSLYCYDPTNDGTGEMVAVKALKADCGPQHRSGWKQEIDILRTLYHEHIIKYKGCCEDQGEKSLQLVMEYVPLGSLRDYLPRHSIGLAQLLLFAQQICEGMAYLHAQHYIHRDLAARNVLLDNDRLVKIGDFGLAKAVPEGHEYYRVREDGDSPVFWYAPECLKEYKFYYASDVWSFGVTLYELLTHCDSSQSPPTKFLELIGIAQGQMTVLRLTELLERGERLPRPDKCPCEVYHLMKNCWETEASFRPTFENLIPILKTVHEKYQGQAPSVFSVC
Procedure, shortened: as §1

[3] = target: T3, JAK2 (catalytic domain, His-tag) (Homo sapiens, UniProt O60674); test: JAK kinase assay (HTRF, phosphorylation of TK substrate-biotin), JAK2; conditions: ATP at Km (4 μM)
T3 construct: All four purified enzymes contain only the catalytic domain; His (N); purchased Carna Biosciences, Inc; host or cells: baculovirus expression system
Procedure, shortened: as §1

[4] = target: T4, JAK1 (aa 850-1154, catalytic domain, GST-tag) (Homo sapiens, UniProt P23458); test: JAK kinase assay (HTRF, phosphorylation of TK substrate-biotin), JAK1; conditions: ATP at Km (7 μM)
T4 construct: JAK1 (aa 850-1154) and TYK2 (aa 871-1187) are expressed with an N-terminally fused GST-tag; GST (N); purchased Carna Biosciences, Inc; host or cells: baculovirus expression system
Procedure, shortened: as §1

[5] = read-out: JAK3 kinase inhibitory activity (EC50 indicator)
[6] = read-out: TYK2 kinase inhibitory activity (EC50 indicator)
[7] = read-out: JAK2 kinase inhibitory activity (EC50 indicator)
[8] = read-out: JAK1 kinase inhibitory activity (EC50 indicator)
[9] = HTRF assay, read-out: JAK3 kinase inhibitory activity (EC50 indicator)
[10] = HTRF assay, read-out: TYK2 kinase inhibitory activity (EC50 indicator)
[11] = HTRF assay, read-out: JAK2 kinase inhibitory activity (EC50 indicator)
[12] = HTRF assay, read-out: JAK1 kinase inhibitory activity (EC50 indicator)
[13] = HTRF assay, read-out: JAK3 kinase inhibitory activity (EC50)
[14] = HTRF assay, read-out: TYK2 kinase inhibitory activity (EC50)
[15] = HTRF assay, read-out: JAK2 kinase inhibitory activity (EC50)
[16] = HTRF assay, read-out: JAK1 kinase inhibitory activity (EC50)

T1 sequence (P52333 822-1111 limits assumed): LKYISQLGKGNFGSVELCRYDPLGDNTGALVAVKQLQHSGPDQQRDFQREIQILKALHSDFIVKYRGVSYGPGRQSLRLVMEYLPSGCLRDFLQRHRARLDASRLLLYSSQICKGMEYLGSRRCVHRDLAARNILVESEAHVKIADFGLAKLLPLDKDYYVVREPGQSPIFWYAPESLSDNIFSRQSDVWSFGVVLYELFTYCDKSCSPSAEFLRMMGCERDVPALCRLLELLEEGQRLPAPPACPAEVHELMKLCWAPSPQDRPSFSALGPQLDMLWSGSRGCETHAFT
T4 sequence (P23458 850-1154): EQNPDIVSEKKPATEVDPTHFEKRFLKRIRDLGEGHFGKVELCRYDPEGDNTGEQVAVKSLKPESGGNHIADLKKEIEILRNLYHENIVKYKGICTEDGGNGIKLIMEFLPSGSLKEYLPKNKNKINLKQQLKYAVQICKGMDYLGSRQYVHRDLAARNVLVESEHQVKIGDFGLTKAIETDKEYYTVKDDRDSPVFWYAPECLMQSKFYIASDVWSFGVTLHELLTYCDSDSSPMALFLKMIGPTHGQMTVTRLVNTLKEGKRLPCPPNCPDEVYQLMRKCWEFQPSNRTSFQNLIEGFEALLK
T3 sequence (O60674 849-1124 limits assumed): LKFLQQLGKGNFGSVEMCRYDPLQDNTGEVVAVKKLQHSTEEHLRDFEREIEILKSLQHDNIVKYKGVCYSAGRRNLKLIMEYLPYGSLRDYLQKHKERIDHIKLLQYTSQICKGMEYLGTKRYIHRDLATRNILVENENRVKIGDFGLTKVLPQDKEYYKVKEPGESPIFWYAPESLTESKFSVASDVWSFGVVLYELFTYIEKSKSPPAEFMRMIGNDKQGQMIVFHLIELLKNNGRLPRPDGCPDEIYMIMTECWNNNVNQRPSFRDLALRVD

Row | SMILES | EC50 [1, 5] | EC50 [2, 6] | EC50 [3, 7] | EC50 [4, 8] | EC50 [1, 9] | EC50 [2, 10] | EC50 [3, 11] | EC50 [4, 12] | also measured
1 | O=C(c1cccc(-c2ccccc2)c1)N1CCN(c2ncnc3[nH]ccc23)CC12CC2 [Example 6, Biphenyl-3-yl-[7-(7H-pyrrolo[2,3-d]pyrimidin-4-yl)-4,7-diazaspiro[2.5]oct-4-yl]methanone] | 100 to 500 nM | 100 to 500 nM | < 100 nM | < 100 nM |  |  |  |  | 
2 | O=C(c1cc2cc(F)cc(F)c2[nH]1)N1C2CCC1CN(c1ncnc3[nH]ccc13)C2 [Example 140, (5,7-Difluoro-1H-indol-2-yl)-[3-(7H-pyrrolo[2,3-d]pyrimidin-4-yl)-3,8-diaza-bicyclo[3.2.1]oct-8-yl]-methanone] | < 100 nM | > 500 nM | < 100 nM | < 100 nM |  |  |  |  | 
3 | COc1cnc2[nH]ccc2c1N1CCN(C(=O)CCCC#N)C2(CC2)C1 [Example 293, 5-[7-(5-Methoxy-1H-pyrrolo[2,3-b]pyridin-4-yl)-4,7-diaza-spiro[2.5]oct-4-yl]-5-oxo-pentanenitrile] |  |  |  |  | < 100 nM | 100 to 500 nM | < 100 nM | < 100 nM | 
4 | Cc1sc(C(=O)N2CCN(c3ncnc4[nH]ccc34)CC23CC3)cc1Br [Example 208, (4-Bromo-5-methyl-thiophen-2-yl)-[7-(7H-pyrrolo[2,3-d]pyrimidin-4-yl)-4,7-diaza-spiro[2.5]oct-4-yl]-methanone] |  |  |  |  | < 100 nM | < 100 nM | < 100 nM | < 100 nM | 
5 | Cc1ccc(S(=O)(=O)N2CCN(c3ncnc4[nH]ccc34)CC23CC3)cc1 [Example 439, 4-[4-(Toluene-4-sulfonyl)-4,7-diazaspiro[2.5]oct-7-yl]-7H-pyrrolo[2,3-d]pyrimidine] |  |  |  |  |  |  |  |  | EC50 [1, 13]: < 100 nM; EC50 [2, 14]: 100 to 500 nM; EC50 [3, 15]: < 100 nM; EC50 [4, 16]: < 100 nM
6 | CNS(=O)(=O)c1ccc(C(=O)N2CCN(c3ncnc4[nH]ccc34)CC23CC3)cc1 [Example 104, N-Methyl-4-[7-(7H-pyrrolo[2,3-d]pyrimidin-4-yl)-4,7-diaza-spiro[2.5]octane-4-carbonyl]-benzenesulfonamide] | < 100 nM | < 100 nM | < 100 nM | < 100 nM |  |  |  |  | 
7 | Cc1nccnc1C(=O)N1CCN(c2ncnc3[nH]ccc23)CC12CC2 [Example 417, (3-Methyl-pyrazin-2-yl)-[7-(7H-pyrrolo[2,3-d]pyrimidin-4-yl)-4,7-diaza-spiro[2.5]oct-4-yl]-methanone] |  |  |  |  | < 100 nM | < 100 nM | < 100 nM | < 100 nM | 
8 | Cn1cc(S(N)(=O)=O)cc1C(=O)N1C2CCC1CN(c1ncnc3[nH]ccc13)C2 [Example 142, 1-Methyl-5-[3-(7H-pyrrolo[2,3-d]pyrimidin-4-yl)-3,8-diaza-bicyclo[3.2.1]octane-8-carbonyl]-1H-pyrrole-3-sulfonic acid amide] | < 100 nM | 100 to 500 nM | < 100 nM | < 100 nM |  |  |  |  | 
9 | COCC(=O)N1CCN(c2ncnc3[nH]ccc23)CC12CC2 [Example 443, 2-Methoxy-1-[7-(7H-pyrrolo[2,3-d]pyrimidin-4-yl)-4,7-diaza-spiro[2.5]oct-4-yl]-ethanone] |  |  |  |  |  |  |  |  | EC50 [1, 13]: > 500 nM; EC50 [2, 14]: > 500 nM; EC50 [3, 15]: < 100 nM; EC50 [4, 16]: < 100 nM
10 | O=C(CCc1ccccc1)N1CCN(c2ncnc3[nH]ccc23)CC12CC2 [Example 153, 3-Phenyl-1-[7-(7H-pyrrolo[2,3-d]pyrimidin-4-yl)-4,7-diaza-spiro[2.5]oct-4-yl]-propan-1-one] | 100 to 500 nM | > 500 nM | < 100 nM | < 100 nM |  |  |  |  | 
11 | COc1cnc2[nH]ccc2c1N1CCN(C(=O)c2cc3ccccc3s2)C2(CC2)C1 [Example 284, Benzo[b]thiophen-2-yl-[7-(5-methoxy-1H-pyrrolo[2,3-b]pyridin-4-yl)-4,7-diaza-spiro[2.5]oct-4-yl]-methanone] |  |  |  |  | > 500 nM | > 500 nM | > 500 nM | > 500 nM | 
12 | N#Cc1ccc2[nH]c(C(=O)N3C4CCC3CN(c3ncnc5[nH]ccc35)C4)cc2c1 [Example 129, 2-[3-(7H-Pyrrolo[2,3-d]pyrimidin-4-yl)-3,8-diaza-bicyclo[3.2.1]octane-8-carbonyl]-1H-indole-5-carbonitrile] | < 100 nM | > 500 nM | < 100 nM | < 100 nM |  |  |  |  | 
13 | O=C(c1cc2ccccc2s1)N1CCN(c2ncnc3[nH]ccc23)CC12CC2 [Example 26, Benzo[b]thiophen-2-yl-[7-(7H-pyrrolo[2,3-d]pyrimidin-4-yl)-4,7-diazaspiro[2.5]oct-4-yl]methanone] | 100 to 500 nM | 100 to 500 nM | < 100 nM | < 100 nM |  |  |  |  | 
14 | CC#CCOC(=O)N1CCN(c2ncnc3[nH]ccc23)CC12CC2 [Example 89, 7-(7H-Pyrrolo[2,3-d]pyrimidin-4-yl)-4,7-diaza-spiro[2.5]octane-4-carboxylic acid but-2-ynyl ester] | 100 to 500 nM | > 500 nM | < 100 nM | < 100 nM |  |  |  |  | 
15 | O=C(c1ccc(C(F)(F)F)cc1)N1[C@@H]2CC[C@H]1CN(c1ncnc3[nH]ccc13)C2 [Example 1, [3-(7H-Pyrrolo[2,3-d]pyrimidin-4-yl)-3,8-diazabicyclo[3.2.1]oct-8-yl]-(4-trifluoromethylphenyl)methanone] | > 500 nM | > 500 nM | 100 to 500 nM | < 100 nM |  |  |  |  | 
16 | O=C(c1cnccn1)N1CCN(c2ccnc3[nH]ccc23)CC12CC2 [Example 225, Pyrazin-2-yl-[7-(1H-pyrrolo[2,3-b]pyridin-4-yl)-4,7-diaza-spiro[2.5]oct-4-yl]-methanone] |  |  |  |  | > 500 nM | > 500 nM | < 100 nM | 100 to 500 nM | 
17 | S=C(COc1ccccc1)N1CCN(c2ncnc3[nH]ccc23)CC12CC2 [Example 448, 2-Phenoxy-1-[7-(7H-pyrrolo[2,3-d]pyrimidin-4-yl)-4,7-diaza-spiro[2.5]oct-4-yl]-ethanethione] |  |  |  |  |  |  |  |  | EC50 [1, 13]: < 100 nM; EC50 [2, 14]: 100 to 500 nM; EC50 [3, 15]: < 100 nM; EC50 [4, 16]: < 100 nM
18 | N#CCc1ccccc1C(=O)N1CCN(c2ncnc3[nH]ccc23)CC12CC2 [Example 300, {2-[7-(7H-Pyrrolo[2,3-d]pyrimidin-4-yl)-4,7-diaza-spiro[2.5]octane-4-carbonyl]-phenyl}-acetonitrile] |  |  |  |  | 100 to 500 nM | 100 to 500 nM | < 100 nM | < 100 nM | 
19 | O=C(c1ccc(S(=O)(=O)NCC2CCCO2)cc1)N1CCN(c2ncnc3[nH]ccc23)CC12CC2 (centres unmarked) [Example 394, 4-[7-(7H-Pyrrolo[2,3-d]pyrimidin-4-yl)-4,7-diaza-spiro[2.5]octane-4-carbonyl]-N-(tetrahydro-furan-2-ylmethyl)-benzenesulfonamide] |  |  |  |  | 100 to 500 nM | 100 to 500 nM | < 100 nM | < 100 nM | 
20 | N#Cc1ccc(C(=O)N2[C@@H]3CC[C@H]2CN(c2ncnc4[nH]ccc24)C3)cc1 [Example 31, 4-[3-(7H-Pyrrolo[2,3-d]pyrimidin-4-yl)-3,8-diazabicyclo[3.2.1]octane-8-carbonyl]benzonitrile] | 100 to 500 nM | > 500 nM | < 100 nM | < 100 nM |  |  |  |  | 
21 | O=C(c1ccc2[nH]cnc2c1)N1CCN(c2ncnc3[nH]ccc23)CC12CC2 [Example 162, (1H-Benzoimidazol-5-yl)-[7-(7H-pyrrolo[2,3-d]pyrimidin-4-yl)-4,7-diaza-spiro[2.5]oct-4-yl]-methanone] | 100 to 500 nM | > 500 nM | < 100 nM | < 100 nM |  |  |  |  | 
22 | COc1cc(C(=O)N2[C@@H]3CC[C@H]2CN(c2ncnc4[nH]ccc24)C3)ccc1S(N)(=O)=O [Example 390, 2-Methoxy-4-[3-(7H-pyrrolo[2,3-d]pyrimidin-4-yl)-3,8-diaza-bicyclo[3.2.1]octane-8-carbonyl]-benzenesulfonamide] |  |  |  |  | < 100 nM | < 100 nM | < 100 nM | < 100 nM | 
23 | CSCCC(=O)N1CCN(c2ncnc3[nH]ccc23)CC12CC2 [Example 455, 3-Methylsulfanyl-1-[7-(7H-pyrrolo[2,3-d]pyrimidin-4-yl)-4,7-diaza-spiro[2.5]oct-4-yl]-propan-1-one] |  |  |  |  |  |  |  |  | EC50 [1, 13]: < 100 nM; EC50 [2, 14]: 100 to 500 nM; EC50 [3, 15]: < 100 nM; EC50 [4, 16]: < 100 nM
